Measured values as given in US20250082931A1, “Treating Gastric Cancer Using TTFields Combined with XELOX, FOLFOX or the Individual Constituents Thereof” (Novocure GmbH, priority 2019, published 2025).

Assays:
[1] = tested on: AGS cells; experiment: Apoptosis analysis by Annexin V / 7AAD staining; type: cell-based; conditions: FOLFOX experiment, 50 nM, 72 h, no TTFields
[2] = tested on: AGS cells; experiment: Cytotoxic effect by cell count after 72 h, with and without TTFields
Protocol: During the treatment the media of all dishes was replaced every 24 h (“hours”).
After 72 h of treatment the media and the cells were collected, and cytotoxicity was determined by cell counts.
(§1) Cells were seeded on inovitro dishes and petri dishes 24 h before starting the experiments. Media containing the indicated concentration of each chemotherapy component alone or FOLFOX and control media was added to the cells and the dishes were connected to TTFields (as in SOP-BI-009) or grown in 37° C., 5% CO2 for 72 h. Each treatment included 8 repeats (8 dishes). The media was replaced every 24 h. At the end of the experiment the cells were collected, and cytotoxicity was determined by cell counts, small number of cells were seeded for colonies and the cells (including cells from the media) were stained for Annexin V and 7AAD for apoptosis analysis.
A TTFields generator (Inovitro systems) was used to apply the treatment to the cells.
Cytotoxic effect: Average and standard deviation of cell number of at least 5 dishes from each treatment was calculated in Excel software. The averages from these repeats was calculated to averages and standard error and is presented as percent from control (no drug treatment) in XY graph of points with error bars using GraphPed software. Significant was determine by 2-way ANOVA followed Multiple comparison using GraphPed software.

[3] = tested on: AGS cells; experiment: Clonogenic effect (colonies count); type: cell-based; conditions: for colonies count: 72 h
Protocol: After 72 h of treatment the media and the cells were collected, and cytotoxicity was determined by cell counts. […] For the testing of the clonogenic effect, cells were seeded for colonies.
After 6-14 days the colonies were fixed, stained and counted to determine clonogenic effect. The overall effect was calculated by multiplying the cytotoxic effect and the clonogenic effect.
Clonogenic effect: The colonies from each well were counted using ImageJ software. Average and standard deviation of colony number of at least 5 wells from each treatment were calculated in excel software. The averages from these repeats was calculated to averages and standard errors and is presented as percent from control (no drug treatment) in XY graph of points with error bars using GraphPed software. Significant was determine by 2-way ANOVA followed Multiple comparison using GraphPed software.

[4] = tested on: KATO III cells; experiment: Apoptosis analysis by Annexin V / 7AAD staining; type: cell-based; conditions: for AnnV+ 7AAD+ cell fraction / AnnV+ 7AAD− cell fraction / AnnV− 7AAD+ cell fraction / AnnV− 7AAD− cell fraction: 72 h
Protocol: After 72 h of treatment the media and the cells were collected, and cytotoxicity was determined by cell counts. Cells (including cells from the media) were stained for Annexin V and 7AAD for apoptosis analysis. For the testing of the clonogenic effect, cells were seeded for colonies.
as §1
Apoptotic effect: Average of cell fraction of each marker staining (Annexin V and 7AAD) of at least 5 dishes from each treatment was calculated in Excel software. The averages from these repeats was calculated to averages and is presented in stacked bar graph using GraphPed software.

[5] = 25 nM, + TTFields 150 kHz 1.0 V/cm
[6] = 50 nM, + TTFields 150 kHz 1.0 V/cm
[7] = 100 nM, + TTFields 150 kHz 1.0 V/cm
[8] = 200 nM, + TTFields 150 kHz 1.0 V/cm
[9] = 400 nM, + TTFields 150 kHz 1.0 V/cm
[10] = FOLFOX experiment, 50 nM, + TTFields 150 kHz 1.0 V/cm
[11] = FOLFOX experiment, 50 nM, no TTFields
[12] = 50 nM, + TTFields 150 kHz 1.6 V/cm
[13] = 100 nM, + TTFields 150 kHz 1.6 V/cm
[14] = 200 nM, + TTFields 150 kHz 1.6 V/cm
[15] = 400 nM, + TTFields 150 kHz 1.6 V/cm
[16] = FOLFOX experiment, 50 nM, + TTFields 150 kHz 1.6 V/cm

With `O=C1[O][Pt]2([NH][C@@H]3CCCC[C@H]3[NH]2)[O]C1=O` [Oxaliplatin] the “AnnV+ 7AAD− cell fraction” value [1] was 5.1%, the “AnnV− 7AAD+ cell fraction” value [1] was 0.2% and the “AnnV− 7AAD− cell fraction” value [1] was 90.1%. It also gave a cell count [2, 5] of 62 % from control, a cell count ([2]; 25 nM, no TTFields) of 88 % from control and a cell count [2, 6] of 43 % from control. For the same compound, the cell count ([2]; 50 nM, no TTFields) was 66 % from control, the cell count [2, 7] was 33 % from control and the cell count ([2]; 100 nM, no TTFields) was 52 % from control. It also gave a cell count [2, 8] of 21 % from control, a cell count ([2]; 200 nM, no TTFields) of 39 % from control and a cell count [2, 9] of 8 % from control. For the same compound, the cell count ([2]; 400 nM, no TTFields) was 11 % from control, the cell count [2, 10] was 46 % from control and the cell count [2, 11] was 78 % from control. The colonies count [3, 5] was 67 % from control, the colonies count ([3]; 25 nM, no TTFields) was 91 % from control and the colonies count [3, 6] was 70 % from control. The colonies count ([3]; 50 nM, no TTFields) was 92 % from control, the colonies count [3, 7] was 61 % from control and the colonies count ([3]; 100 nM, no TTFields) was 97 % from control. The colonies count [3, 8] was 43 % from control, the colonies count ([3]; 200 nM, no TTFields) was 77 % from control and the colonies count [3, 9] was 18 % from control. For the same compound, the colonies count ([3]; 400 nM, no TTFields) was 36 % from control, the colonies count [3, 10] was 64 % from control and the colonies count [3, 11] was 91 % from control. For the same compound, the “colonies number (clonogenic effect and overall effect), drug + TTFields compared to drug alone” value ([3]; Two-way ANOVA P<0.001) was “significant reduction in colonies number”, the “elevation in percent of cells that undergo apoptosis, drug + TTFields compared to drug alone” value [4] was “higher” and the “AnnV+ 7AAD+ cell fraction” value [4, 12] was 16.12%. For the same compound, the “AnnV+ 7AAD− cell fraction” value [4, 12] was 16.57%, the “AnnV− 7AAD+ cell fraction” value [4, 12] was 1.31% and the “AnnV− 7AAD− cell fraction” value [4, 12] was 66.01%. For the same compound, the “AnnV+ 7AAD+ cell fraction” value ([4]; 50 nM, no TTFields) was 6.09%, the “AnnV+ 7AAD− cell fraction” value ([4]; 50 nM, no TTFields) was 11.36% and the “AnnV− 7AAD+ cell fraction” value ([4]; 50 nM, no TTFields) was 1.30%. For the same compound, the “AnnV− 7AAD− cell fraction” value ([4]; 50 nM, no TTFields) was 81.25%, the “AnnV+ 7AAD+ cell fraction” value [4, 13] was 14.83% and the “AnnV+ 7AAD− cell fraction” value [4, 13] was 19.81%. The “AnnV− 7AAD+ cell fraction” value [4, 13] was 0.72%, the “AnnV− 7AAD− cell fraction” value [4, 13] was 64.63% and the “AnnV+ 7AAD+ cell fraction” value ([4]; 100 nM, no TTFields) was 6.42%. The “AnnV+ 7AAD− cell fraction” value ([4]; 100 nM, no TTFields) was 10.55%, the “AnnV− 7AAD+ cell fraction” value ([4]; 100 nM, no TTFields) was 1.32% and the “AnnV− 7AAD− cell fraction” value ([4]; 100 nM, no TTFields) was 81.71%. The “AnnV+ 7AAD+ cell fraction” value [4, 14] was 19.97%, the “AnnV+ 7AAD− cell fraction” value [4, 14] was 22.60% and the “AnnV− 7AAD+ cell fraction” value [4, 14] was 0.86%. For the same compound, the “AnnV− 7AAD− cell fraction” value [4, 14] was 56.57%, the “AnnV+ 7AAD+ cell fraction” value ([4]; 200 nM, no TTFields) was 8.42% and the “AnnV+ 7AAD− cell fraction” value ([4]; 200 nM, no TTFields) was 11.47%. For the same compound, the “AnnV− 7AAD+ cell fraction” value ([4]; 200 nM, no TTFields) was 1.01%, the “AnnV− 7AAD− cell fraction” value ([4]; 200 nM, no TTFields) was 79.10% and the “AnnV+ 7AAD+ cell fraction” value [4, 15] was 21.45%. For the same compound, the “AnnV+ 7AAD− cell fraction” value [4, 15] was 25.36%, the “AnnV− 7AAD+ cell fraction” value [4, 15] was 0.65% and the “AnnV− 7AAD− cell fraction” value [4, 15] was 52.54%. For the same compound, the “AnnV+ 7AAD+ cell fraction” value ([4]; 400 nM, no TTFields) was 11.24%, the “AnnV+ 7AAD− cell fraction” value ([4]; 400 nM, no TTFields) was 12.11% and the “AnnV− 7AAD+ cell fraction” value ([4]; 400 nM, no TTFields) was 1.42%. The “AnnV− 7AAD− cell fraction” value ([4]; 400 nM, no TTFields) was 75.23%, the “AnnV+ 7AAD+ cell fraction” value [4, 16] was 27.60% and the “AnnV+ 7AAD− cell fraction” value [4, 16] was 15.15%. For the same compound, the “AnnV− 7AAD+ cell fraction” value [4, 16] was 1.32%, the “AnnV− 7AAD− cell fraction” value [4, 16] was 55.94% and the “AnnV+ 7AAD+ cell fraction” value [4, 11] was 18.07%. For the same compound, the “AnnV+ 7AAD− cell fraction” value [4, 11] was 10.28%, the “AnnV− 7AAD+ cell fraction” value [4, 11] was 1.12% and the “AnnV− 7AAD− cell fraction” value [4, 11] was 70.54%.
